Data set [1] addresses T1, ABCB1 transporter (Homo sapiens, UniProt P08183).
T1 construct: expressed in transfected cells; host or cells: MDCKII (canine kidney) cells transduced with human ABCB1, from Prof; Piet Borst and Dr. Alfred Schinkel (The Netherlands Cancer Institute)
The data set can be described thus: HOE (Hoechst 33342) accumulation in MDCKII-ABCB1 cells. Type of data set: cell-based. The note with it: 8 µM HOE, end-point fluorescence at 30 min, 50% of each compound's own maximum inhibitory activity, read-out: IC50, inhibition of ABCB1-mediated efflux of HOE. Here is the method:
(§1) To investigate the inhibitory activity of CDKi on ABCB1, the intracellular accumulation of HOE, a fluorescent ABCB1 substrate, was examined in both MDCKII-ABCB1 and MDCKII parent cell lines in the presence and absence of the tested compounds. The reduction in fluorescence intensity in ABCB1-transduced cells indicates the efflux activity of the ABCB1 transporter, its inhibition increases HOE accumulation and thus the intracellular fluorescence.
(§2) The assay was conducted as previously described and optimized for application in ABCB1-expressing cells. Briefly, MDCKII-ABCB1 and MDCKII parent cells were seeded at 5×10^4 cells per well on a 96-well culture plate and used for accumulation experiments after 24 h cultivation. The medium was removed and cells were washed twice with prewarmed phosphate buffered saline (PBS) at pH 7.4.

Data set [2] has as its target T1, ABCB1 transporter. The experiment in a line: DNR accumulation in MDCKII-ABCB1 cells (flow cytometry), normalized to parental MDCKII. Type of data set: cell-based. The note with it: 2 µM DNR. The method, then:
Briefly, MDCKII-ABCB1 and MDCKII parent cells were seeded at 1.5×10^5 cells per well on a 12-well plate 24 h before the experiment. The medium was removed and the cells were washed with prewarmed PBS. The cells were then preincubated in Opti-MEM, with or without CDKi or LY at 37°C in 5% CO2 for 30 min. […] Accumulation was stopped by cooling the samples on ice, removing the medium and washing twice with ice-cold PBS. The cells were then detached from the plates with 10× trypsin-EDTA, resuspended in PBS with 2% FBS and transferred to Eppendorf tubes, which were placed on ice until analysis. […] The median fluorescence (MF) intensity of 10,000 measured cells was used to compare the fluorescence resulting from each of the treatments. […] The MF intensity of untreated cells was subtracted from fluorescence values obtained for all the measured samples.
To quantify the inhibitory effect of each tested compound on the ABCB1 transporter in the MDCKII-ABCB1 cell line, the ratio between the MF intensity with or without inhibitor was calculated and normalized to the effect in the parental MDCKII cell line according to the following equation [30]: [drawing 1]

Data set [3] has as its target T2, ABCB1 (Homo sapiens, UniProt P08183). The data set can be described thus: ABCB1-ATPase inhibition assay (verapamil-stimulated), Sf9 membranes. Type of data set: biochemical. More on the design: purchased Solvo Biotechnology (Szeged, Hungary); host or cells: Sf9 insect cell membranes. The following applies: 140 nM to 300 µM. The method, then:
(§3) The drug efflux function of ABCB1 is linked to hydrolysis of ATP by ATPase, which is stimulated in the presence of ABCB1 substrates. In the activation assay, transported substrates can stimulate baseline vanadate-sensitive ATPase activity, whereas in the inhibition assay, which is carried out in the presence of a known activator of the transporter, inhibitors may reduce the maximal vanadate-sensitive ATPase activity. ATPase activity was measured by assessing the amount of phosphate liberated from ATP by the ABCB1 transporter using the […] ATPase kit for ABCB1 according to the manufacturer’s instructions. For this purpose, Sf9 cell membranes (4 µg protein per well) were mixed with each of the test compounds (singly) in solutions with concentrations ranging from 140 nM to 300 µM, then incubated at 37°C for 10 min in the presence or absence of 1.2 mM sodium orthovanadate. The reaction was started by adding 10 mM ATP solution (magnesium salt) to the reaction mixture, stopped 10 min later, and the absorbance at 590 nm was measured after a further 30 min incubation (GeniosPlus apparatus; Tecan, Männedorf, Switzerland). The ATPase activity in each sample was determined as the difference in liberated amounts of phosphate measured in the presence and absence of 1.2 mM sodium orthovanadate. Phosphate standards were prepared in each plate and verapamil served as a positive control for ABCB1 stimulation. The results are expressed as vanadate-sensitive ATPase activities.

The subject of a further data set is mouse P-glycoprotein. More on the design: method as in PMID 15338193. The note with it: cited from earlier work.
The target in data set [4] is T2, ABCB1. The data set can be described thus: HOE (Hoechst 33342) accumulation in MDCKII-ABCB1 cells. The following applies: human, probe Hoechst 33342 (HOE), 8 µM, CDKi applied at their respective IC50 concentrations, % as strongly as LY, read-out: Inhibition of HOE efflux relative to LY. More on the design: expressed in transfected cells; host or cells: MDCKII (canine kidney) cells transduced with human ABCB1, from Prof; Piet Borst and Dr. Alfred Schinkel (The Netherlands Cancer Institute). Type of data set: cell-based. Here is the method:
as §1, §2

Data set [5] addresses T2, ABCB1. The data set can be described thus: ABCB1-ATPase activation assay (baseline), Sf9 membranes. Type of data set: biochemical. More on the design: purchased Solvo Biotechnology (Szeged, Hungary); host or cells: Sf9 insect cell membranes. The note with it: from ATPase activity in Sf9 membranes overexpressing human ABCB1. The method, then:
as §3

The subject of the next data set is HepG2 cells. The data set can be described thus: XTT cytotoxicity, CDKi + DNR combination (Chou-Talalay). It is filed as cell-based, human. The following applies: HepG2, 72 h. The method, then: (§4) 1×10^4 MDCKII-ABCB1, 1×10^4 MDCKII parent, 2×10^4 HCT-8, or 2×10^4 HepG2 cells were grown in 96-well culture plates and incubated for 24 h. Individual CDKi diluted with growth medium were added to the exponentially growing cells and the resulting mixtures were incubated for 72 h at 37°C, 5% CO2. Cytotoxicity was then assessed using the XTT assay as follows: cells were incubated with 0.167 mg/mL XTT and 4 µM PMS in Opti-MEM for 2 h. The absorbance of the soluble formazan released was measured at 470 nm on a microplate reader (Tecan, Männedorf, Switzerland).
(§5) The combination index (CI) method of Chou-Talalay, based on the median-effect equation, was used to calculate combined drug effects. This approach offers quantitative definitions for additive, synergistic and antagonistic effects (CI values of 0.9–1.1, <0.9, and >1.1, respectively). Combination experiments were performed in a constant-ratio experimental design as recommended for the most efficient data analysis, and the generated data were used to quantify dose-reduction indices (DRI) for pairs of the tested drugs. DRI represents the fold-change of a focal effect when individual agents are used simultaneously relative to their separate effects, and their activity is synergistic if DRI > 1. […] The data acquired from these drug combination experiments were analyzed using CompuSyn ver. 3.0.1 software (ComboSyn Inc., Paramus, NJ, USA).

Another data set concerns ABCG2. The arrangement: method as in PMID 22173067, PMID 24116053. The note with it: in vitro and in situ; cited from earlier work.
A further data set concerns MDCKII parent cells. The data set can be described thus: XTT cytotoxicity, CDKi + DNR combination (Chou-Talalay). It is filed as cell-based. The following applies: 72 h. The method, then:
as §4, §5
A general note: Tetrazolium dyes change colour on reduction, which living cells bring about.

A further data set relates to MDCKII-ABCB1 cells. The description is as above. Type of data set: cell-based. The following applies: MDCKII-ABCB1, 72 h. The method, then: as §4, §5
The subject of a further data set is HCT-8 cells. The description is as above. The following applies: HCT-8, 72 h. Here is the method: as §4, §5
Where [6] appears, read: CDKi combined with DNR at constant ratio.

T2 sequence (P08183 whole entry): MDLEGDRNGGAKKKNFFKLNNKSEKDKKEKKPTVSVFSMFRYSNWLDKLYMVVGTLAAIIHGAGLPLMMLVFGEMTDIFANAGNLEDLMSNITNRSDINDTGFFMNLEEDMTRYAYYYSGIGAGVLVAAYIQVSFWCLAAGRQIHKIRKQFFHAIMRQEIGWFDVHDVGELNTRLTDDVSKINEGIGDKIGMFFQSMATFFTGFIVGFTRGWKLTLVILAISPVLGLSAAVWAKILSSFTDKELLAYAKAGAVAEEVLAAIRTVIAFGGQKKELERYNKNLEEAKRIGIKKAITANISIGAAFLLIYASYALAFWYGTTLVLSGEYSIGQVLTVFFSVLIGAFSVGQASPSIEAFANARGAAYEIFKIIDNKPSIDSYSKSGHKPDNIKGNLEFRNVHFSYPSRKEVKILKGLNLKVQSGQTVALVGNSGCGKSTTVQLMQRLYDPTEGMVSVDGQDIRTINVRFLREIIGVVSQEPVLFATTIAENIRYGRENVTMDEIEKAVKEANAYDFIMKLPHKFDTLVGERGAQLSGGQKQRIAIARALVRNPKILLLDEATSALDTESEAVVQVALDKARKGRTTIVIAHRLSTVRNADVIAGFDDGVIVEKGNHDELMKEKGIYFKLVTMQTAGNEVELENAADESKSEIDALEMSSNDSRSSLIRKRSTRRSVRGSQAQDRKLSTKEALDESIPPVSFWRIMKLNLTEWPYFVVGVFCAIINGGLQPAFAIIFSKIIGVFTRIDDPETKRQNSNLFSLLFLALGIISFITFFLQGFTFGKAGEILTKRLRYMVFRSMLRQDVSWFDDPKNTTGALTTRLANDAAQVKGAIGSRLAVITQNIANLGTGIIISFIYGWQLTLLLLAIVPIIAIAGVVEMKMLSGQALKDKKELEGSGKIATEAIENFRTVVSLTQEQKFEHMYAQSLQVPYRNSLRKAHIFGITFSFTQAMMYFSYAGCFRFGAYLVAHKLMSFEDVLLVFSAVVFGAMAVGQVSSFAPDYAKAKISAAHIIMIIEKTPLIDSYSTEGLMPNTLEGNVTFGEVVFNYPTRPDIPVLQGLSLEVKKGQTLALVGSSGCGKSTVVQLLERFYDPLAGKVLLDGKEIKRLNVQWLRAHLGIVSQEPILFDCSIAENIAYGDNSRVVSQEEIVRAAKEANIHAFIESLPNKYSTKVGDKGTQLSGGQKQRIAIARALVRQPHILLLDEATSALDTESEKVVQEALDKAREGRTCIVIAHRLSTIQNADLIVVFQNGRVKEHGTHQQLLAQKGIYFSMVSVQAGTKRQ
T1 sequence (P08183 whole entry): as above

By IC50 is commonly meant the concentration at which inhibition is half-maximal. For orientation: inhibition means how much of the control response was suppressed. Regarding `CC(C)(C)c1cnc(CSc2cnc(NC(=O)C3CCNCC3)s2)o1` [SNS-032], the half-maximal inhibitory concentration (IC50) on ABCB1 transporter [1] is 14.6 µM. For the same compound, the “Inhibition of DNR efflux/accumulation across applied range” value at ABCB1 transporter [2] (1 - 20 µM CDKi) is “did not inhibit DNR accumulation at any tested concentration”. Also, the “Effect on verapamil-stimulated vanadate-sensitive ATPase activity of ABCB1” value on ABCB1 [3] was “only slightly reduced it at the highest tested concentration”. For the same compound, the “Substrate of mouse P-glycoprotein (brain levels Abcb1 knockout vs wild type mice)” value with mouse P-glycoprotein is “substrate of mouse P-glycoprotein”. Moreover, at ABCB1 [4], the inhibition at 30 min was 23%. Also, the ABCB1 substrate classification entry on ABCB1 [5] is “non-substrates of ABCB1”.
As to `CC(C)[C@H](CO)Nc1nc(Nc2cccc(Cl)c2)c2ncn(C(C)C)c2n1` [purvalanol A], on ABCB1 transporter [1], the IC50 is 12.1 µM. On ABCB1 transporter [2] (20 µM CDKi), the “ABCB1 inhibition (DNR efflux)” value is given as “significant (P<0.05) ABCB1 inhibition”. The “Fa values for synergism of combination with DNR” value in the data set on HepG2 cells (constant ratio) was 0.9. In addition, the “DRI at Fa 0.9, drug II (CDKi)” value in the data set on HepG2 cells (setting [6]) came to 1.68±0.03; in the data set on MDCKII parent cells (setting [6]), 2.39±0.06; with MDCKII-ABCB1 cells (setting [6]), 3.45±0.04; in the data set with HCT-8 cells (setting [6]), 1.68±0.05. For the same compound, the ABCG2 inhibition result with ABCG2 is “can inhibit ABCG2 in vitro and in situ”. Also, the “Effect on verapamil-stimulated vanadate-sensitive ATPase activity of ABCB1” value on ABCB1 [3] was “considerably and dose-dependently reduced”. For the same compound, the “DRI at Fa 0.5, drug II (CDKi)” value with MDCKII parent cells (setting [6]) was 2.41±0.03; with MDCKII-ABCB1 cells (setting [6]), 4.03±0.08. Besides, the entries for the “DRI at Fa 0.75, drug II (CDKi)” value in the data set with MDCKII parent cells (setting [6]), in the data set with MDCKII-ABCB1 cells (setting [6]) and in the data set on HCT-8 cells (setting [6]) were 2.40±0.04, 3.73±0.06 and 1.77±0.01, respectively. Besides, in the data set on MDCKII parent cells (constant ratio), the “Fa above which combination with DNR is synergistic” value is reported as “exceeded 0.4”. In the data set on MDCKII-ABCB1 cells (constant ratio), the “Combination index (CI) category, combination with DNR” value is recorded as “synergistic category of drug combination effects across almost the whole fraction of cells affected (Fa) range”. Also, the “Fa at which combination with DNR shows synergistic cytotoxic effects” value in the data set on HCT-8 cells (constant ratio) is on record as more than 0.75. The inhibition at 30 min at ABCB1 [4] amounted to 86%. Besides, the ABCB1 substrate classification entry at ABCB1 [5] is “non-substrates of ABCB1”.

The values are drawn from publication PMC3871618 (PLoS ONE, 2013).
